Measurements reported in patent publication US10568854B2, “Compositions and methods for treating kabuki syndrome and related disorders” (THE JOHNS HOPKINS UNIVERSITY, priority 2014, dated 2020).
Entries after “also recorded” stand apart in the source; their conditions may differ.

Experiments:
[1] = system: H3K4me3 indicator (H3K4 trimethylation machinery activity); assay: H3K4me3 indicator reporter assay, FACS; format: cell-based; settings: FIG. 17F
Text: Design of the indicator constructs. A genetically encoded histone reporter allele system has been developed which can be used to monitor activity of any histone maintenance machinery component in live cells. Previously, FRET based epigenetic activity systems have been created (Lin and Ting (2004) Angew Chem Int Ed Engl. 24;43 (22):2940-3; Lin et al. (2004) J. Am. Chem. Soc. 19;126(19):5982-3; U.S. Pat. No. 7,056,683). However, FRET-based assays need a complex technological setup which is not widely available and FRET-based assays have been much more difficult to introduce into transgenic mouse models. […] The particular construct design is based on a circularly permutated green fluorescent protein (GFP) that lacks fluorescence unless the two parts of GFP are brought into close proximity by external forces (Baird et al. (1999) Proc. Natl. Acad. Sci. U.S.A. 28;96(20):11241-6). […]
An H3K4 trimethylation reporter was also created. […] The activity of the epigenetic modification system can be quantified through fluorescence.
Epigenetic reporter alleles: Epigenetic reporter alleles were synthesized (OriGene, Rockville, Md.) using published sequences for component elements (Baird et al. (1999) Proc. Nail. Acad. Sci. 96:11241-6; Souslova et al. (2007) BMC Biotechnol. 7:37). […] FACS data were analyzed using FlowJo (Tree Star Inc, Ashland, Oreg.). […]

H3K4me3 in the GCL = assay: Immunofluorescence of H3K4me3 in dentate gyrus GCL (AR-42 treated mice); format: in vivo, mouse
Text: Animals: Kmt2d^+/βGeo mice, also named Mll2Gt^(RRt024)Byg, were acquired from Bay Genomics (University of California). All experimental mice were on a mixed C57BL/6J and 129/SvEv background. Expected Mendelian ratios were observed when heterozygous animals were bred to wild-type. In heterozygous crosses, however, there was uniform embryonic lethality of homozygotes by ED12, the earliest developmental stage assayed. For treatment with AR-42 mice were orally gavaged daily with drug (Selleck Chemicals, Houston, Tex.) solubilized in vehicle (0.5% methylcellulose, 0.1% Tween-80, water) or with vehicle alone. Drug delivery information was kindly provided by Drs. […] For quantification of DCX positive cells, doses of 0, 5, 10 and 25 mg/kg/day were used. […] Maxillary protrusion was evaluated by ten investigators blinded to genotype and they were asked to rate maxillary protrusion on radiographs as either large (2) or small (1). […]
Confocal microscopy: Z-stack images of slides were taken at either 10× using Zeiss Axiovert 200 with 510-Meta confocal module (Carl Zeiss, Jena, GER) or 25× using Zeiss AxioExaminer with 710NLO-Meta multiphoton (Carl Zeiss, Jena, GER). From 10× pictures, the GCL was highlighted and fluorescent intensities for both DAPI and H3K4me3 were measured at the midpoint of the entire z-stack (Zen software, Carl Zeiss, Jena, GER) with the value for Kmt2d^+/+ animals set equal to one. […]

CC(C)[C@H](C(=O)Nc1ccc(C(=O)NO)cc1)c1ccccc1 [AR-42, (S)—N-hydroxy-4-(3-methyl-2-phenylbutanamido)benzamide]
H3K4me3 indicator response to increasing levels of drug [1]: dose dependent response | cell numbers ([1]; higher doses): decreased cell numbers at higher doses | H3K4me3 in the GCL (H3K4me3 in the GCL; 25 mg/kg/day, oral gavage, two weeks): increased H3K4 trimethylation; also recorded: increased H3K4me3 | H3K4me3 in the GCL (H3K4me3 in the GCL; 5 and 10 mg/kg/day, both genotypes): dose-dependent increase in H3K4me3
